Measurements as given in the NIST ThermoML archive (doi:10.1016/j.jct.2015.10.002).

Experiment: mn = molality of the nth substance listed, in mol/kg
Details: 101.3 kPa, Liquid; for viscosity: Capillary tube (Ostwald / Ubbelohde) method; for mass density: Vibrating tube method

OC[C@@H](O)[C@@H](O)[C@H](O)[C@@H](O)CO [D-sorbitol] + O
Details | mass density, m1 = 0.2 [kg/m3] | mass density, m1 = 0.4 [kg/m3] | mass density, m1 = 0.6 [kg/m3] | mass density, m1 = 0.8 [kg/m3] | mass density, m1 = 1 [kg/m3] | viscosity, m1 = 0.2 [mPa·s] | viscosity, m1 = 0.4 [mPa·s] | viscosity, m1 = 0.6 [mPa·s] | viscosity, m1 = 0.8 [mPa·s] | viscosity, m1 = 1 [mPa·s]
293.15 K | 1010.61 | 1022.43 | 1033.64 | 1044.32 | 1054.54 | 1.099 | 1.203 | 1.319 | 1.453 | 1.592
303.15 K | 1007.87 | 1019.5 | 1030.53 | 1041.07 | 1051.08 | 0.87 | 0.944 | 1.034 | 1.122 | 1.233
313.15 K | 1004.3 | 1015.77 | 1026.67 | 1037.06 | 1046.99 | 0.708 | 0.766 | 0.829 | 0.903 | 0.977
323.15 K | 999.96 | 1011.33 | 1022.12 | 1032.4 | 1042.26 | 0.588 | 0.634 | 0.686 | 0.738 | 0.797
